According to ChEMBL document CHEMBL1201862, “PubChem BioAssay data set” (2004):
Active and inactive are the calls of the source.

Experiments:
[1] = target: T1, Tyrosine-protein phosphatase non-receptor type 22 (Homo sapiens, UniProt Q9Y2R2); experiment: inhibition of lymphoid tyrosine phosphatase LYP – biochemical, pCAP fluorogenic substrate, fluorescence, set 3, SAR follow-up (AID 449727); type: functional
T1 sequence (Q9Y2R2 whole entry): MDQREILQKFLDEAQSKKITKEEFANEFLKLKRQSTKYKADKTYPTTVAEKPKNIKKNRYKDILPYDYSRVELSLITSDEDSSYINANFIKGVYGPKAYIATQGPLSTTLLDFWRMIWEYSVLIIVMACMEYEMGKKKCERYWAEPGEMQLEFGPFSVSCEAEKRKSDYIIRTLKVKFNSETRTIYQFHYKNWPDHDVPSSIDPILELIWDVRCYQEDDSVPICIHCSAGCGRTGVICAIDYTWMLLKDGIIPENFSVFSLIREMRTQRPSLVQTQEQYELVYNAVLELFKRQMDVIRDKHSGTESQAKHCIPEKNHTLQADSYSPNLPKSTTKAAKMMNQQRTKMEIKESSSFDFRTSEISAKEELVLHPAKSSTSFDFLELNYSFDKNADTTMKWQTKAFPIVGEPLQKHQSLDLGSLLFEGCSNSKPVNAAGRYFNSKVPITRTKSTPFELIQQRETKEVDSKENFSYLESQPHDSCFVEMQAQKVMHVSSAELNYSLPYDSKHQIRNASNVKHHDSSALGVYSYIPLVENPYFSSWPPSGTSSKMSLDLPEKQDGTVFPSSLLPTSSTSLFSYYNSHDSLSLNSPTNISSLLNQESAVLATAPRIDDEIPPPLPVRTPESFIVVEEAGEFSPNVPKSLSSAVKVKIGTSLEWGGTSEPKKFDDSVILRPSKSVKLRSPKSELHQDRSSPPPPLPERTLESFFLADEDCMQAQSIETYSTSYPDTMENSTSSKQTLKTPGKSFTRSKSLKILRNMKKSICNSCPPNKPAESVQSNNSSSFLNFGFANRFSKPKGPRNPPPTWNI

[2] = target: T2, Tyrosine-protein phosphatase non-receptor type 7 (Homo sapiens, UniProt P35236); experiment: inhibition of hematopoietic tyrosine phosphatase HePTP – biochemical, set 2, SAR follow-up (AID 449736); type: functional
T2 sequence (P35236 whole entry): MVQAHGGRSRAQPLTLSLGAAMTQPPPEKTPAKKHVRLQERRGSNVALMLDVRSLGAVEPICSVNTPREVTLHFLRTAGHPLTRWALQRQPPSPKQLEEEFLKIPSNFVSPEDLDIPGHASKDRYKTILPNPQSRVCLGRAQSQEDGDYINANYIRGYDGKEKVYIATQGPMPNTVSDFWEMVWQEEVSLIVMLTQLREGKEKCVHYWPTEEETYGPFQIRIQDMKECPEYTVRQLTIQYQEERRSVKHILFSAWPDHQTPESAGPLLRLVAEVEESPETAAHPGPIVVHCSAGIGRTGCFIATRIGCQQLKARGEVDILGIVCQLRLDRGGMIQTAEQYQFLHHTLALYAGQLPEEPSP

[3] = target: T1, Tyrosine-protein phosphatase non-receptor type 22; type: functional
[4] = target: T3, Low molecular weight phosphotyrosine protein phosphatase (Homo sapiens, UniProt P24666); type: functional; conditions: read-out: IC50_Mean
[5] = target: T1, Tyrosine-protein phosphatase non-receptor type 22; experiment: PubChem AID 2135
[6] = target: T4, Dual specificity protein phosphatase 3 (Homo sapiens, UniProt P51452); experiment: VHR1 phosphatase inhibitors, biochemical (AID 1878)
[7] = target: T1, Tyrosine-protein phosphatase non-receptor type 22; experiment: LYP1 Fluorescent Assay using OMFP substrate for In Vitro dose response studies. [Related pubchem assays (depositor defined):AID1779, AID1784, AID435024]
[8] = target: T1, Tyrosine-protein phosphatase non-receptor type 22; experiment: PTPN22 lymphoid phosphatase activity blockers – biochemical, fluorescence intensity, uHTS (AID 1779)
[9] = target: T1, Tyrosine-protein phosphatase non-receptor type 22; experiment: PubChem AID 2140
[10] = target: T4, Dual specificity protein phosphatase 3; experiment: VHR1 phosphatase inhibitors, primary screen, biochemical, absorbance, uHTS (AID 1654)
[11] = target: T1, Tyrosine-protein phosphatase non-receptor type 22; experiment: SAR LYP1 Fluorescent Assay using OMFP substrate for In Vitro dose response studies - Set 2. [Related pubchem assays (depositor defined):AID1779, AID1784, AID2140, AID449726, AID488869]; type: functional
[12] = target: T2, Tyrosine-protein phosphatase non-receptor type 7; experiment: HTS HePTP Fluorescent Assay using OMFP substrate for In Vitro dose response studies. [Related pubchem assays (depositor defined):AID1059, AID1077, AID1784, AID2068, AID2085, AID435032, AID521]; type: functional
[13] = target: T2, Tyrosine-protein phosphatase non-receptor type 7; type: functional
[14] = target: T1, Tyrosine-protein phosphatase non-receptor type 22; experiment: SAR LYP1 Fluorescent Assay using OMFP substrate for In Vitro dose response studies - Set 3. [Related pubchem assays (depositor defined):AID1779, AID1784, AID2140, AID2686]; type: functional
[15] = target: Tyrosine-protein phosphatase non-receptor type 12 (Homo sapiens, UniProt Q05209); experiment: SAR Selectivity Analysis of small molecule inhibitors of PEST using pCAP in a fluorescence assay. [Related pubchem assays (depositor defined):AID1779, AID1784, AID2135]; type: functional
[16] = target: T5, Dual specificity protein phosphatase 6 (Rattus norvegicus, UniProt Q64346); experiment: inhibition of rat DUSP6 enzyme activity – biochemical, in vitro, primary screen (AID 425)
T5 sequence (Q64346 whole entry): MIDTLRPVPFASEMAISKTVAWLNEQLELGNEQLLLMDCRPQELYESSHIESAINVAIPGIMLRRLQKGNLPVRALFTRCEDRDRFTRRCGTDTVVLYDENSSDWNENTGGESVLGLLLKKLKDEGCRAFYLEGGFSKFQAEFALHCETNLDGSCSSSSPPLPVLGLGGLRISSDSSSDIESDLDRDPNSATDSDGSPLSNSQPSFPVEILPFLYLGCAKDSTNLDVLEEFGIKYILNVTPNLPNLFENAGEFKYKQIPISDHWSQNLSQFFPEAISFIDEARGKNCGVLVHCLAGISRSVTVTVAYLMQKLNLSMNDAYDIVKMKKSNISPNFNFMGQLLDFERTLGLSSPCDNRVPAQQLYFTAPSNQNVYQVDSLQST

[17] = target: T3, Low molecular weight phosphotyrosine protein phosphatase; type: functional; conditions: read-out: IC50_Mean; remark: listed apart in the source
[18] = target: T1, Tyrosine-protein phosphatase non-receptor type 22; experiment: SAR LYP1 Fluorescent Assay using pCAP substrate for In Vitro dose response studies - Set 2. [Related pubchem assays (depositor defined):AID1779, AID1784, AID2135, AID449727]; type: functional
[19] = target: Lysine-specific demethylase 4A (Homo sapiens, UniProt O75164); experiment: inhibition of JMJD2A H3K9me3 demethylation – biochemical, DELFIA europium, cherry-picked samples, selectivity assay for GASC-1 inhibitor project, dose response (AID 488840)
CHO-K1 = experiment: (§1) Counterscreen for antagonists of the orexin 1 receptor (OX1R; HCRTR1): Homogeneous time resolved fluorescence (HTRF)-based cell-based dose response assay to identify antagonists of the parental CHO-K1 cell line. [Related pubchem assays (depositor defined):AID434989, AID435008, AID463079, AID485270, AID492963, AID492964, AID492965, AID493232, AID504699, AID504701]; type: functional; conditions: Cricetulus griseus
[20] = target: T6, Orexin/Hypocretin receptor type 1 (Homo sapiens, UniProt O43613); experiment: (§2) Fluorescence-based cell-based high throughput dose response assay for antagonists of the orexin 1 receptor (OX1R; HCRTR1). [Related pubchem assays (depositor defined):AID434989, AID435008, AID463079, AID485270, AID492963, AID492964, AID492965, AID493232, AID504717, AID504718]; type: functional
[21] = as §1, with “Fluorescence-based” for “Homogeneous time resolved fluorescence (HTRF)-based”, “cell-based high throughput” for “cell-based”, “CHO” for “CHO-K1”; type: functional
[22] = target: T6, Orexin/Hypocretin receptor type 1; experiment: as §2, with “Homogeneous Time Resolved Fluorescence (HTRF)-based” for “Fluorescence-based”; type: functional
[23] = target: Signal transducer and activator of transcription 3 (Homo sapiens, UniProt P40763); experiment: STAT3 blockade with qPCR and toxicity readouts – cell-based, STAT1 panel, cytotoxicity, late-stage follow-up, panel member STAT3 Inhibition (AID 2078)
[24] = target: Signal transducer and activator of transcription 1-alpha/beta (Homo sapiens, UniProt P42224); experiment: STAT3 blockade with qPCR and toxicity readouts – cell-based, STAT1 panel, cytotoxicity, late-stage follow-up, panel member STAT1 Inhibition (AID 2078)
Sequence of Signal transducer and activator of transcription 1-alpha/beta (P42224 whole entry): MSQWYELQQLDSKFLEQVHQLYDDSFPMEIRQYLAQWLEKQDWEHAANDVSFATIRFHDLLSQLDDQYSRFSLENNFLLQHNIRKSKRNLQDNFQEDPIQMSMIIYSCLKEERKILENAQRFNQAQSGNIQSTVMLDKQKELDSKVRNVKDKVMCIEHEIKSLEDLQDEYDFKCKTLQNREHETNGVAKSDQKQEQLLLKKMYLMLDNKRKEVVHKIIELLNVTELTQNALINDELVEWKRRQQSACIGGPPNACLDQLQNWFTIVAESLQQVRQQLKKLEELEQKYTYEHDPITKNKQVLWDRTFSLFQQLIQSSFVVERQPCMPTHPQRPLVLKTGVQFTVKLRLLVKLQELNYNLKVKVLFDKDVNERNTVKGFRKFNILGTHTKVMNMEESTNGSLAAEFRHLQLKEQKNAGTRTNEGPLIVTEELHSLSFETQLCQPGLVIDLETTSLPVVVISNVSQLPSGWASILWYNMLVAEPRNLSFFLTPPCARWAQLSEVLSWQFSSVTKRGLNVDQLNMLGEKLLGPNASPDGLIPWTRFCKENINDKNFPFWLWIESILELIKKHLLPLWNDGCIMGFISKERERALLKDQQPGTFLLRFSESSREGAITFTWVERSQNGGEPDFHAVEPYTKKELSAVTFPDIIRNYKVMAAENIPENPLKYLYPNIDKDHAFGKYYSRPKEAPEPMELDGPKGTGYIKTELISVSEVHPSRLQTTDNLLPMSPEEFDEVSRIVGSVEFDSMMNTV

T4 sequence (P51452 whole entry): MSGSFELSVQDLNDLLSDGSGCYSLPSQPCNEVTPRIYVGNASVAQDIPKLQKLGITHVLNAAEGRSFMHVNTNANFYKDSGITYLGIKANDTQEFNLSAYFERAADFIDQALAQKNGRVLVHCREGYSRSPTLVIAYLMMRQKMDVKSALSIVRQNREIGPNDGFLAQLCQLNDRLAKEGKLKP
T3 sequence (P24666 whole entry): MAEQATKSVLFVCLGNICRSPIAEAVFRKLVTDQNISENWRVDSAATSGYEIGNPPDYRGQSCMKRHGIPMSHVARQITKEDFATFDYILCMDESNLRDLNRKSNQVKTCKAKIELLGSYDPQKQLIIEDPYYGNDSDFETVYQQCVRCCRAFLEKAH
T6 sequence (O43613 whole entry): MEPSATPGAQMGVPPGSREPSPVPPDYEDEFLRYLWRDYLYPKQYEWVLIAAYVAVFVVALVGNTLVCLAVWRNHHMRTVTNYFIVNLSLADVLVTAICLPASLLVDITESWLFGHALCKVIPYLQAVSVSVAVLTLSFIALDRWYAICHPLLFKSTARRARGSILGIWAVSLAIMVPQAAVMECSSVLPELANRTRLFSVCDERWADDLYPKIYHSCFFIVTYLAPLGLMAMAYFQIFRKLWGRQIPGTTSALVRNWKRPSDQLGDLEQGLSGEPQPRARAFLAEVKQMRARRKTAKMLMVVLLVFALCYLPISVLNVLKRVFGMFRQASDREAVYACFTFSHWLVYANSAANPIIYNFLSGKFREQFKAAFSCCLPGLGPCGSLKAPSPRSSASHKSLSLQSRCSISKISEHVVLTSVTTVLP
Sequence of Tyrosine-protein phosphatase non-receptor type 12 (Q05209 whole entry): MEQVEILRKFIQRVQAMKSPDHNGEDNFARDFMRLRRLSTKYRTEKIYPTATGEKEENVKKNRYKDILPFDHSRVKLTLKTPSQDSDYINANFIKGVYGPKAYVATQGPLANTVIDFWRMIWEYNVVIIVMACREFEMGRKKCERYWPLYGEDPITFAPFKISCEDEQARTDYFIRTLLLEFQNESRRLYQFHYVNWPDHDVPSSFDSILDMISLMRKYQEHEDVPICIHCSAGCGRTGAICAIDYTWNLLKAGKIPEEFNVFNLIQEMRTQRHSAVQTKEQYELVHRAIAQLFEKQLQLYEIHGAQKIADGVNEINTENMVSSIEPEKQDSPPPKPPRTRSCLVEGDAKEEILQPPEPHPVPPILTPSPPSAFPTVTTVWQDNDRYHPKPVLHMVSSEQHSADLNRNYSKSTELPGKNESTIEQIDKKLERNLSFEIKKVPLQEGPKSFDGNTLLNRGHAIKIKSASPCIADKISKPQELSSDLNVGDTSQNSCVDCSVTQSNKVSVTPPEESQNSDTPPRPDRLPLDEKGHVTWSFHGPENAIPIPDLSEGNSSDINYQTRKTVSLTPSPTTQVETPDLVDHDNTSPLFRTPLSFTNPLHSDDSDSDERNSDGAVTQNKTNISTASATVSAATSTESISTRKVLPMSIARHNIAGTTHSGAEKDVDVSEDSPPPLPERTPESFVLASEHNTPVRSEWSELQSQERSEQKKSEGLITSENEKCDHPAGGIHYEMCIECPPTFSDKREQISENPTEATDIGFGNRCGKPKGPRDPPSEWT
Sequence of Lysine-specific demethylase 4A (O75164 whole entry): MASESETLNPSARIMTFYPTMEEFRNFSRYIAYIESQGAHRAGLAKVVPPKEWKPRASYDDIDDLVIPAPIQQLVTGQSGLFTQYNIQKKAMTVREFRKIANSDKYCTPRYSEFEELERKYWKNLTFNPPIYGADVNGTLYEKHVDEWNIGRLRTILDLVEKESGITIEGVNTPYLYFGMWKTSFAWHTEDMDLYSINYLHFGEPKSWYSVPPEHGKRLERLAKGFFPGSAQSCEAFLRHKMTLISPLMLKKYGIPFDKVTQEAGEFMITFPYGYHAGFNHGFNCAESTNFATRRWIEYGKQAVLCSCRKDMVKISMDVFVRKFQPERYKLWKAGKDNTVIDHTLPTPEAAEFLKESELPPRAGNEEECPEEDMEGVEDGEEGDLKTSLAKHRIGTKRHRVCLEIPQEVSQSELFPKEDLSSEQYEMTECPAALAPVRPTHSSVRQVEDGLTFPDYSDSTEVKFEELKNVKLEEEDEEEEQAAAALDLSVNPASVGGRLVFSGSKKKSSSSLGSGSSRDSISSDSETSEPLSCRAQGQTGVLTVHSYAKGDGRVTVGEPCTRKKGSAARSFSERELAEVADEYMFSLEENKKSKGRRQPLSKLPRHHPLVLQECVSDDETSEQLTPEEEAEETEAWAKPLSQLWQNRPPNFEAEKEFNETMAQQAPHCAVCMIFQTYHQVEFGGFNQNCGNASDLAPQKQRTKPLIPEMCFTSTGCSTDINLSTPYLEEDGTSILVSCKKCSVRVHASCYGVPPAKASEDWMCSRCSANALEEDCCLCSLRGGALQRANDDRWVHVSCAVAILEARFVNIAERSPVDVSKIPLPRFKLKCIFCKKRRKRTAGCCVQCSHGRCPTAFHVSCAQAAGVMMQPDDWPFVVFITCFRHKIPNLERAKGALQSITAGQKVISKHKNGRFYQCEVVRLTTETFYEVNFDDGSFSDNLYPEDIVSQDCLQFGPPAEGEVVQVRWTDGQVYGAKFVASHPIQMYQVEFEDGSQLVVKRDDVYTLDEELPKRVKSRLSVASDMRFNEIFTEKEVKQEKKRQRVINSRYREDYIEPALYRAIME
Sequence of Signal transducer and activator of transcription 3 (P40763 whole entry): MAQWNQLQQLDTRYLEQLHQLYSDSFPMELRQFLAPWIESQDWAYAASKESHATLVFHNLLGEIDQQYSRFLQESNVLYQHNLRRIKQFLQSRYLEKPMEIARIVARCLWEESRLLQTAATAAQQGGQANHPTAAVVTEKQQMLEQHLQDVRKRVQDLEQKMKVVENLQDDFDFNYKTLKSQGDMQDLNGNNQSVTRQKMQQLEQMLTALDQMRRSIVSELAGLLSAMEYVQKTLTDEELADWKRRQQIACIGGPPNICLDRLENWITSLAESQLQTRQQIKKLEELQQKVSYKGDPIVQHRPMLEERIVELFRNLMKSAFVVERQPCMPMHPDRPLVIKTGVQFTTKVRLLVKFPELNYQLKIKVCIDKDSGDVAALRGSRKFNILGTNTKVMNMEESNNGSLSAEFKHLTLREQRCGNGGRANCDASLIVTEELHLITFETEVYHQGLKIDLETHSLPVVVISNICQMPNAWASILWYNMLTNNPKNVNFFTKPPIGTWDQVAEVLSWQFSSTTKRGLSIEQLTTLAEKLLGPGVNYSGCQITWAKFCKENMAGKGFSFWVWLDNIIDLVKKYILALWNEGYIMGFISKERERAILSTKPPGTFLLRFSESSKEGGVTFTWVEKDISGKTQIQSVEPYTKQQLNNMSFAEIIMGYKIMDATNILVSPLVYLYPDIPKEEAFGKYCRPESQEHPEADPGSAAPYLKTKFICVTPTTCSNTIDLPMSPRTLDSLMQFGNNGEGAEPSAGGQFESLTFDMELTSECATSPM

Cc1ccc(/C=C/c2nc(O)c3c(C)c(C(=O)O)sc3n2)cc1[N+](=O)[O-]
active: IC50 [1] 6.19 µM | IC50 [2] 2.92 µM | IC50 [3] 11.2 µM | IC50 [5] 6.6 µM | IC50 [6] 1.62 µM | IC50 [7] 16.8 µM | IC50 [8] 12.9 µM | IC50 [9] 50.9 µM | IC50 [10] 11.1 µM | IC50 [11] 4.56 µM | IC50 [13] 12.2 µM | IC50 [14] 10.7 µM | IC50 [15] 3.43 µM | IC50 [16] 8.48 µM | IC50 [18] 3.17 µM
inactive: IC50 [4] > 80 µM | IC50 [12] > 99 µM | IC50 [17] 32.7 µM

O=c1nc(SCc2cccc(C(F)(F)F)c2)nc2ccccn12
inactive: AC50 [19] > 60 µM

Cn1cc(/C=C(\C#N)C(=O)Nc2ccccc2O)c2ccccc21
inactive: IC50 (CHO-K1) > 66.2 µM | IC50 [21] 25 µM
active: IC50 [20] 5.57 µM | IC50 [22] 4.48 µM

c1ccc(CC2CCN(c3nc(CN4CCOCC4)nc4sc5c(c34)CCCC5)CC2)cc1
inactive: IC50 [23] > 55.7 µM | IC50 [24] > 55.7 µM
